pIC50: −log10 of the molar value.
Key:
Type in all cases: cell-based
p-MEK1(S298) = assay: In vitro cellular HTRF assay for p-MEK1(S298); conditions: cell line RT4-D6P2T, read-out: pMEK1(S298)
Text: (§1) Some of the compounds for treatment of cancer are subject to in vitro cellular HTRF assay for p-PAK1(S144) and p-MEK1(S298). The cell line is RT4-D6P2T.

p-PAK1(S144) = assay: In vitro cellular HTRF assay for p-PAK1(S144); conditions: cell line RT4-D6P2T, read-out: pPAK1(S144)
Text: as §1

OVCAR-4 = assay: Growth inhibition in cancer cell lines (CellTiter-Glo), OVCAR-4; conditions: OVCAR-4, 72 hours exposure
Text: (§2) Methodology: 60 cell lines (CCRF-CEM, HL-60(TB), K-562, MOLT-4, RPMI-8226, SR, A549, EKVX, HOP-62, HOP-92, NCI-H226, NCI-H23, NCI-H322M, NCI-H460, NCI-H522, COLO 205, HCC-2998, HCT-116, HCT-15, HT29, KM12, SW-620, SF-268, SF-295, SF-539, SNB-19, SNB-75, U251, LOX IMV1, MALME-3M, M14, SK-MEL-2, SK− MEL-28, SK-MEL-5, UACC-257, UACC-62, IGR-OV 1, OVCAR-3, OVCAR-4, OVCAR-5, OVCAR-8, SK-OV-3, 786-0, A498, ACHN, CAKI-1, RXF 393, SN12C, TK-10, UO-31, PC-3, DU-145, MCF7, NCI/ADR-RES, MDA-MB-231, HS 578T, MDA-MB-435, MDA-MB-468, BT-549, and T-47D) are grown in RPMI-1640 medium with 10% FBS. Stock solutions of a test compound are prepared in DMSO. Concentrations of from about 0.001 μM to about 20 μM of each compound in RPM-1640 media are prepared. The test compound is added to wells containing 50 μL of cells and medium. A CellTiter-Glo (CTG) assay is carried out on the 0 hr plate to obtain a 0 hr count. Cells are exposed to the test compound for 72 hours. Following the exposure period, the plates are assayed using CTG. Luminescence is recorded on Synergy.
(§3) As a non-limiting example, Compound 30 as described herein was tested for growth inhibition against various cancer cell lines.

SKOV-3 = assay: Growth inhibition in cancer cell lines (CellTiter-Glo), SKOV-3; conditions: Homo sapiens, SK-OV-3; SKOV-3, 72 hours exposure
Text: as §2, §3

NCI-H520 = assay: Growth inhibition in cancer cell lines (CellTiter-Glo), NCI-H520; conditions: NCI-H520, 72 hours exposure
Text: as §2, §3

SK-MES-1 = assay: Growth inhibition in cancer cell lines (CellTiter-Glo), SK-MES-1; conditions: SK-MES-1, 72 hours exposure
OVCAR-3 = assay: Growth inhibition in cancer cell lines (CellTiter-Glo), OVCAR-3; conditions: OVCAR-3, 72 hours exposure
Text: as §2, §3

IGROV-1 = assay: Growth inhibition in cancer cell lines (CellTiter-Glo), IGROV-1; conditions: IGROV-1, 72 hours exposure
Text: as §2, §3

EBC-1 = assay: Growth inhibition in cancer cell lines (CellTiter-Glo), EBC-1; conditions: EBC-1, 72 hours exposure

Row | SMILES | pIC50 (p-MEK1(S298)) | pIC50 (p-PAK1(S144)) | also measured
1 | Cc1nc(-c2ccc(-c3cc4cnc(NC5CCOCC5)nc4n(CC4CCNCC4)c3=O)c(Cl)c2)no1 [drawing 396] | 5.30 to 6.30 | 6.30 to 7.30 | 
2 | Cc1nc(-c2ccc(-c3cc4cnc(NC5CCOCC5)nc4n(Cc4ccc(CCN)cc4)c3=O)c(Cl)c2)no1 [drawing 394] | 5.30 to 6.30 | 6.30 to 7.30 | 
3 | Cc1cncc(-c2ccc(-c3cc4cnc(N[C@@H]5CCOC5)nc4n(CCCN)c3=O)c(Cl)c2)n1 [drawing 384] | 5.30 to 6.30 | 5.30 to 6.30 | 
4 | Cc1nc(-c2ccc(-c3cc4cnc(NC5CCOCC5)nc4n(Cc4cccc(OCCN)c4)c3=O)c(Cl)c2)no1 [drawing 380] | 5.30 to 6.30 | 5.30 to 6.30 | 
5 | CCn1c(=O)c(-c2ccc(-c3cccnc3F)cc2Cl)cc2cnc(NC3CCOCC3)nc21 [drawing 392] | 5.30 to 6.30 | 5.30 to 6.30 | 
6 | CCn1c(=O)c(-c2ccc(-c3cncc(C)n3)cc2Cl)cc2cnc(NCCC3CCN(C)CC3)nc21 [drawing 390] | 6.30 to 7.30 | 6.30 to 7.30 | 
7 | CCn1c(=O)c(-c2ccc(-c3nccnc3C)cc2Cl)cc2cnc(NC3CCOC(C)(C)C3)nc21 (stereo not drawn) [Compound 30] |  |  | GI50 (OVCAR-4; Homo sapiens): 2600 nM; Maximum Inhibition (OVCAR-4): −50%; GI50 (SKOV-3): 3800 nM; GI50 (NCI-H520; Homo sapiens): 6000 nM; Maximum Inhibition (NCI-H520): −17%; GI50 (SK-MES-1; Homo sapiens): 3800 nM; Maximum Inhibition (SK-MES-1): −14%; GI50 (OVCAR-3; Homo sapiens): 3100 nM; Maximum Inhibition (OVCAR-3): −20%; GI50 (IGROV-1; Homo sapiens): 330 nM; Maximum Inhibition (IGROV-1): −50%; Maximum Inhibition (EBC-1): −13%; GI50 (EBC-1; Homo sapiens): 3500 nM
8 | CCn1c(=O)c(-c2ccc(-c3cncc(C)n3)cc2Cl)cc2cnc(NCC3CCC(N)CC3)nc21 (stereo not drawn) [drawing 383] | 5.30 to 6.30 | 6.30 to 7.30 | 
9 | Cc1nc(-c2ccc(-c3cc4cnc(NC5CCNC(=O)C5)nc4n(Cc4c(F)cccc4C(F)(F)F)c3=O)c(Cl)c2)no1 (stereo not drawn) [drawing 382] | < 5.30 | 5.30 to 6.30 | 
10 | CCn1c(=O)c(-c2ccc(-c3cncc(C)n3)cc2Cl)cc2cnc(NC3CCOCC3)nc21 [drawing 391] | 5.30 to 6.30 | 6.30 to 7.30 | 
11 | Cc1nc(-c2ccc(-c3cc4cnc(NC5CCOCC5)nc4n(Cc4cccc(CN)c4)c3=O)c(Cl)c2)no1 [drawing 379] | 5.30 to 6.30 | 6.30 to 7.30 | 
12 | Cc1nc(-c2ccc(-c3cc4cnc(NC5CCOCC5)nc4n(CC(=O)NCc4ccncc4)c3=O)c(Cl)c2)no1 [drawing 388] | < 5.30 | 5.30 to 6.30 | 
13 | Cc1nc(-c2ccc(-c3cc4cnc(NC5CCOCC5)nc4n(CCC4CCNCC4)c3=O)c(Cl)c2)no1 [drawing 378] | 5.30 to 6.30 |  | 
14 | Cc1nc(-c2ccc(-c3cc4cnc(NC5CCOCC5)nc4n(Cc4cccc(CCN)c4)c3=O)c(Cl)c2)no1 [drawing 395] | 6.30 to 7.30 | 6.30 to 7.30 | 
15 | Cc1nc(-c2ccc(-c3cc4cnc(NC5CCOCC5)nc4n(Cc4ccc(CN)cc4)c3=O)c(Cl)c2)no1 [drawing 397] | 5.30 to 6.30 | 6.30 to 7.30 | 
16 | CCn1c(=O)c(-c2ccc(-c3nccnc3C)cc2Cl)cc2cnc(NC3CCOC(C)(C)C3)nc21 (stereo not drawn) [drawing 385] | 5.30 to 6.30 | 5.30 to 6.30 | 
17 | CCn1c(=O)c(-c2ccc(-c3cncc(C)n3)cc2Cl)cc2cnc(N[C@H]3CCOC3)nc21 [drawing 389] | < 5.30 | 5.30 to 6.30 | 
18 | CN(C)C[C@@H](NC(=O)N1Cc2c(Nc3ncnc4sccc34)n[nH]c2C1(C)C)c1ccccc1 | 5.30 to 6.30 | 6.30 to 7.30 | 
19 | CCn1c(=O)c(-c2ccc(-c3cccc(C)n3)cc2Cl)cc2cnc(N[C@H]3CC[C@H](CN(C)C)CC3)nc21 | 5.30 to 6.30 | 5.30 to 6.30 | 
